Experimental data reported in patent US7459281B2, “Docetaxel immunoassay” (Saladax Biomedical Inc., priority 2005, dated 2008).

What was measured:
[1] = tested on: docetaxel antibody (antiserum produced in Example 11 with C7 substituted docetaxel acid derivative immunogen); assay: Indirect competitive microtiter plate ELISA, IC50 and cross-reactivity, polyclonal antibodies to C7 substituted docetaxel acid derivative conjugate; assay type: binding, mouse (BALB/c); details: antibody of Example 11, immunogen of Example 9a
Description: Ten Female BALB/c mice were immunized i.p. with 100 μg/mouse of docetaxel-immunogen: either docetaxel-BTG as prepared in Example 9a or docetaxel-KLH immunogen as prepared in Example 9b emulsified in Complete Freund's Adjuvant. After the initial injection mice were boosted once after four weeks with 100 μg/mouse of the same immunogen emulsified in Incomplete Freund's Adjuvant. Ten days after the boosts test bleeds from each mouse were obtained by orbital bleed. The anti-serum from the last test bleeds containing docetaxel antibodies from each of the mice were evaluated by the procedures in Examples 14a and 16 to determine their reactivity to docetaxel and their cross reactivity to 10-O-Deacytlbaccatin III and, paclitaxel [Taxol].
Antibodies were screened by Enzyme-Linked Immunosorbent Assay (ELISA) method. This method for screening docetaxel antibodies (produced in Examples 10 and 11) was performed with the microtiter plates that were sensitized with docetaxel-BSA as described in Examples 12 and 13. The antibody screening assay was performed by diluting the antisera containing docetaxel antibodies to 1:100, 1:1,000, 1:10,000 and 1:100,000 in phosphate buffered saline containing 0.1% BSA and 0.01% thimerosal. To each well of docetaxel-BSA sensitized wells (prepared in Examples 12 and 13) 100 μL of diluted antibody was added and incubated for 10 minutes at room temperature with shaking. During this incubation antibody binds to the docetaxel-conjugate in the well. The wells of the plates were washed three times with 0.02 M TRIS, 0.9% NaCl, 0.5% Tween-80 and 0.001% Thimerosal, pH 7.8 to remove any unbound antibody. […] Following the incubation for color development, 50 μL of stop solution (1.5% sodium fluoride in di H2O) was added to each well to stop the color development and after 10 seconds of shaking the absorbance was determined at 650 nm with a 96-well plate reader. The amount of antibody in a well was proportional to the absorbance measured and was expressed as the dilution (titer) resulting in an absorbance of 1.5. Titers were determined by graphing log antibody dilution of the antibody measured (x-axis) vs. absorbance 650 nm (y-axis) and extrapolating the titer at an absorbance of 1.5. The titer determined the concentration (dilution) of antibody used in the indirect competitive Microtiter plate assay described in Examples 15 and 16.
(§1) Docetaxel concentrations were measured by an indirect competitive Enzyme-Linked Immunosorbent Assay (ELISA) method. […]

[2] = tested on: docetaxel monoclonal antibody (produced in Example 11); assay: Indirect competitive microtiter plate ELISA, IC50 and cross-reactivity, monoclonal antibodies to C7 substituted docetaxel acid derivative conjugate; assay type: binding, mouse (BALB/c); details: monoclonal antibody of Example 11, immunogen of Examples 9a & 9b; microtiter plate prepared as in Example 13
Description: For monoclonal antibodies starting […] before the fusion, the mice were injected i.p. with 400 μg (3 days before fusion), 200 μg (2 days before fusion), and 200 μg (1 day before fusion) on three successive days with either docetaxel-BTG or docetaxel-KLH (depending on the original immunogen) in PBS. According to the protocol of Coligan et al. spleen cells were isolated from the selected mice and fused with 2×10^7 cells of the myeloma fusion partner cell line (SP2/o) using 50% polyethylene glycol 1500 [Coligan, J. E. et al., eds., Current Protocols in Immunology, 2.5.1-2.5.8, (1992), Wiley & Sons, NY.] […]
Antibodies were screened by Enzyme-Linked Immunosorbent Assay (ELISA) method. […] Following the incubation for color development, 50 μL of stop solution (1.5% sodium fluoride in di H2O) was added to each well to stop the color development and after 10 seconds of shaking the absorbance was determined at 650 nm on a 96-well plate reader. The amount of antibody in a well was proportional to the absorbance measured. Samples with an absorbance of three times background or greater were designated as positive.
as §1

[3] = microtiter plate prepared as in Example 12
[4] = microtiter plate prepared as in Example 13

SMILES | percent cross-reactivity relative to docetaxel (ratio of IC50 for docetaxel to IC50 for analyte) [1, 3] | percent cross-reactivity relative to docetaxel (ratio of IC50 for docetaxel to IC50 for analyte) [1, 4] | percent cross-reactivity relative to docetaxel (ratio of IC50 for docetaxel to IC50 for analyte) [2]
CC(=O)O[C@@]12CO[C@@H]1CC(O)[C@@]1(C)C(=O)[C@H](O)C3=C(C)C(O)C[C@@](O)([C@@H](OC(=O)c4ccccc4)[C@H]21)C3(C)C (stereo partly drawn) [10-O-Deacytlbaccatin III, 10-O-Deacetylbaccatin III] | less than 0.02% | less than 0.01% | less than 1.0%
CC(=O)O[C@H]1C(=O)[C@@]2(C)[C@H]([C@H](OC(=O)c3ccccc3)[C@]3(O)C[C@H](OC(=O)[C@H](O)[C@@H](NC(=O)c4ccccc4)c4ccccc4)C(C)=C1C3(C)C)[C@]1(OC(C)=O)CO[C@@H]1C[C@@H]2O [Paclitaxel, paclitaxel] | less than 2% | less than 1% | less than 12%
